# Assay results published in patent US7090991B2 (priority 1999, dated 2006).
# Non-standard residues stand in square brackets, D forms with d. Residues, ends and D or L forms follow the SMILES beside them. No end group written: not given here.
# Legend:
# [1] = tested on: Growth Hormone Secretagoge Receptor; test: Test cell + FUS1p-lacZ plasmid, GHSR; assay type: cell-based, sheep; conditions: CY18879, CP6416, saturating or near saturating ligand
# Description: (§1) Detection of LacZ activity in the detector cells (data shown in Table 6) was performed essentially as described in the experimental protocol of Example 1, with the exception that 20 microliters of a solution containing 0.5 mM fluorescein di-β-D-galactopyranoside (FDG), 125 mM PIPES pH 7.2, 1.25% Triton X-100 was added instead of the 20 microliters of CPRG solution utilized in Example 1. Following addition of the FDG solution, the reaction was incubated for 30 minutes at 37° C. After stopping the reaction with 20 microliters of 1 M Na2CO3, the fluorescence was determined utilizing a 96-well plate reader with an excitation wavelength of 485 nm and an emission wavelength of 535 nm.
# [2] = tested on: Growth Hormone Secretagoge Receptor; test: Test cell + detector cell (FDG), GHSR; assay type: cell-based, sheep; conditions: CY18879, CP6416, saturating or near saturating ligand
# Description: (§2) A strain of test cells was established by transforming (transfecting) a culture of S. cerevisiae yeast cells with the human1a (ML1a) receptor gene. Cultures of MATα test cells containing a heterologous ML1a receptor (CY1 3858) and MATa detector cells (a CY19 related strain containing the CP1212 FUS1p-LacZ plasmid) were grown overnight to stationary phase in media selective for the maintenance of the plasmids (SCD-leu media for the MATα cells and SCD-ura for the MATα cells). The cells were diluted with additional medium and permitted to recover from stationary phase for several hours. After determination of the optical density of the cultures, the cells were harvested by centrifugation, were washed once in non-selective synthetic medium, and were resuspended in non-selective medium at an approximate optical density (measured at 600 nm) of 0.4. […] The final volume of cells, culture medium and ligand was about 100 microliters. The cells were mixed using a plate-mixer and incubated at 30° C. […] The reaction was then stopped by the addition of 60 microliters 1 M sodium carbonate, and the absorbance at a wavelength of 575 nm was determined using a plate reader. […]
# [3] = tested on: R-VIP-1; test: Test cell + FUS1p-lacZ plasmid, R-VIP-1; assay type: cell-based, Rat; conditions: CY18636, CP4110, saturating or near saturating ligand
# Description: as §1
# [4] = tested on: R-VIP-1 Rat; test: Test cell + detector cell (FDG), R-VIP-1; assay type: cell-based; conditions: CY18636, CP4110, saturating or near saturating ligand
# Description: as §2
# [5] = molecular target: T1, ML1a melatonin receptor (Homo sapiens, UniProt P48039); test: Two cell assay: MFα1-deleted MATα test cells with ML1a receptor (CY18596) + MATa detector cells, β-galactosidase (CPRG); assay type: cell-based; conditions: MFα1-deleted test cells expressing ML1a receptor
# T1 construct: expressed in transfected cells; host or cells: S. cerevisiae MATα test cells (CY13858; CY18596, MFα1-deleted), plasmid CP2695
# Description: (§3) Cultures of MATα test cells containing a heterologous ML1a receptor (CY1 3858) and MATa detector cells (a CY19 related strain containing the CP1212 FUS1p-LacZ plasmid) were grown overnight to stationary phase in media selective for the maintenance of the plasmids (SCD-leu media for the MATα cells and SCD-ura for the MATα cells). The cells were diluted with additional medium and permitted to recover from stationary phase for several hours. After determination of the optical density of the cultures, the cells were harvested by centrifugation, were washed once in non-selective synthetic medium, and were resuspended in non-selective medium at an approximate optical density (measured at 600 nm) of 0.4. […] The final volume of cells, culture medium and ligand was about 100 microliters. The cells were mixed using a plate-mixer and incubated at 30° C. […] The reaction was then stopped by the addition of 60 microliters 1 M sodium carbonate, and the absorbance at a wavelength of 575 nm was determined using a plate reader.
# Using the experimental protocol described in Example 1, MATα test cells lacking the MFα1 gene and containing a plasmid encoding the ML1a receptor (CY18596) or a mock control plasmid (CY18594) were mixed with an equal number of MATa detector cells having a FUS1-LacZ plasmid. […]
# [6] = tested on: MATα test cells lacking the ML1a receptor; test: Two cell assay: MFα1-deleted MATα test cells with mock plasmid (CY18594) + MATa detector cells, β-galactosidase (CPRG); assay type: cell-based, S. cerevisiae; conditions: in the presence of melatonin
# Description: as §3
# [7] = molecular target: T2, melatonin ML1a receptor (Homo sapiens, UniProt P48039); test: Two cell assay: MATα test cells with ML1a receptor (CY13858) + MATa FUS1p-LacZ detector cells, β-galactosidase (CPRG); assay type: cell-based
# T2 construct: expressed in transfected cells; host or cells: S. cerevisiae MATα test cells (CY13858; CY18596, MFα1-deleted), plasmid CP2695
# Excerpt: Binding of cognate ligand to the heterologous receptor in the test cell activates the receptor, causing a signal to be transduced through the pheromone response pathway, ultimately resulting in the secretion of α-factor from the cell. Specific receptors at the surface of the detector cells bind to the secreted α-factor and are activated by it, resulting in the transduction of a signal through the pheromone response pathway in these cells, and activating the transcription of the lacZ gene. The activity of the β-galactosidase expressed from this lacZ gene may be determined and thereby enables a determination of the activity of the pheromone response pathway in the first, test cells.
# A strain of test cells was established by transforming (transfecting) a culture of S. cerevisiae yeast cells with the human1a (ML1a) receptor gene. […] After determination of the optical density of the cultures, the cells were harvested by centrifugation, were washed once in non-selective synthetic medium, and were resuspended in non-selective medium at an approximate optical density (measured at 600 nm) of 0.4. […] The reaction was then stopped by the addition of 60 microliters 1 M sodium carbonate, and the absorbance at a wavelength of 575 nm was determined using a plate reader.
# [8] = molecular target: T3, Bradykinin 2 Receptor (Homo sapiens, UniProt P30411); test: Test cell + detector cell (FDG), BK2; assay type: cell-based; conditions: CY18778, CP1930, saturating or near saturating ligand
# T3 construct: expressed in transfected cells; host or cells: S. cerevisiae MATα test cells, plasmid CP1930
# T3 sequence (P30411 1-391): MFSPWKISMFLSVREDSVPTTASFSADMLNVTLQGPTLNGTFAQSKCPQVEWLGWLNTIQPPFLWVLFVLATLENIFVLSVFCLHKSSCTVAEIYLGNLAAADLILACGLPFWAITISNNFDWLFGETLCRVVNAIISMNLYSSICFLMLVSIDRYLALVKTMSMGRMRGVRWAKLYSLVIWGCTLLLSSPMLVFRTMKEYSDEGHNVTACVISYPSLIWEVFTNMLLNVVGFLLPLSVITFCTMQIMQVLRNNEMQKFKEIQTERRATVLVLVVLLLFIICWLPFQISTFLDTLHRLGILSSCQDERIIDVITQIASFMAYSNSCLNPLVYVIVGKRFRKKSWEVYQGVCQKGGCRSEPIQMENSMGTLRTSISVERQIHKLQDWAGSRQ
# Description: as §2
# [9] = molecular target: T3, Bradykinin 2 Receptor; test: Test cell + FUS1p-lacZ plasmid, BK2; assay type: cell-based; conditions: CY18778, CP1930, saturating or near saturating ligand
# Description: as §1
# T1 sequence (P48039 whole entry): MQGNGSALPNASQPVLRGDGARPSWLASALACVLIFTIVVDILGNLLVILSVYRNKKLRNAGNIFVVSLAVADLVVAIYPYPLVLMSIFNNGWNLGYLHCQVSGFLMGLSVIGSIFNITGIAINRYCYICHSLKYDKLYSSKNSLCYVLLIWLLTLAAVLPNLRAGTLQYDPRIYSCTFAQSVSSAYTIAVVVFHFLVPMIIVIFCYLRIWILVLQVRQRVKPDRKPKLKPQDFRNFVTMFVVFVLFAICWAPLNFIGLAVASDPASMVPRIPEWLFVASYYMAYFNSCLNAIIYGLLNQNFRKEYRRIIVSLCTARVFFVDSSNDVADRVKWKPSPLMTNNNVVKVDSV
# T2 sequence (P48039 whole entry): as above
compound,measurement,setting,value
C[C@H](NC(=O)[C@@H](Cc1c[nH]c2ccccc12)NC(=O)[C@@H](N)Cc1c[nH]cn1)C(=O)N[C@@H](Cc1c[nH]c2ccccc12)C(=O)N[C@H](Cc1ccccc1)C(=O)N[C@@H](CCCCN)C(N)=O [GHRP-6] (H-H[dW]AW[dF]K-NH2),"Fold induction, Test Cell + FUS1p-lacZ plasmid",[1],9 fold
same,"Fold induction, Test cell + Detector Cell",[2],4 fold
NC(=O)CC[C@@H]1NC(=O)[C@H](Cc2ccccc2)NC(=O)[C@H](Cc2ccc(O)cc2)NC(=O)[C@@H](N)CSSC[C@@H](C(=O)N2CCC[C@H]2C(=O)N[C@@H](CCCN=C(N)N)C(=O)NCC(N)=O)NC(=O)[C@H](CC(N)=O)NC1=O [Vasopressin],"Fold induction, Test Cell + FUS1p-lacZ plasmid",[3],20 fold
same,"Fold induction, Test cell + Detector Cell",[4],8 fold
COc1ccc2[nH]cc(CCNC(C)=O)c2c1 [melatonin],β-galactosidase activity,[5]; in the presence of melatonin,approximately 2.1 units
same,increase in β-galactosidase activity,[5]; melatonin versus no ligand,~5.2 fold
same,α-factor secretion by test cells as detected by detector cells,[6],did not secrete any additional α-factor
same,β-galactosidase activity in the detector cells,"[7]; in the presence of melatonin, no ligand approximately 1.1 units",approximately 1.8 units
same,induction in β-galactosidase activity,[7]; melatonin versus no ligand,approximately 1.6 fold
RPPGFSPFR [Bradykinin],"Fold induction, Test cell + Detector Cell",[8],84 fold
same,"Fold induction, Test Cell + FUS1p-lacZ plasmid",[9],101 fold
